Assay results from US9758527B2, “Cyclohexene derivative, preparation method therefor, and pharmaceutical composition for preventing or treating metabolic diseases, containing same as active ingredient” (HYUNDAI PHARM CO., LTD., priority 2014, dated 2017).
Read-outs that look alike come from different tables or passages of the source.

Biological target: T1, G protein-coupled receptor 119 (GPR-119) (Mesocricetus auratus, UniProt A0A1U8CD06)
T1 construct: hamster-derived β-cells containing G protein-coupled receptor 119 (GPR-119), HIT-T15 cells; host or cells: HIT-T15 (hamster pancreatic β-cells)
T1 sequence (A0A1U8CD06 1-334): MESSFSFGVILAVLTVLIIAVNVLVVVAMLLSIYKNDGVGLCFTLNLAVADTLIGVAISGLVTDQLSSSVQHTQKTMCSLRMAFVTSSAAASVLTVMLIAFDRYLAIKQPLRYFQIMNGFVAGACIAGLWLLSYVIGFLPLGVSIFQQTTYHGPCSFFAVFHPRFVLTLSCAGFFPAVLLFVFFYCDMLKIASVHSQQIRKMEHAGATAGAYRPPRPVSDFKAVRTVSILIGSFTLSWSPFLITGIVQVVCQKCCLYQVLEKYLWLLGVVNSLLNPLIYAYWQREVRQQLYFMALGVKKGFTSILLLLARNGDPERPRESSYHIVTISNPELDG
Test: Evaluation of cAMP activity in HIT-T15 cells (HTRF cAMP dynamic kit)
Format: cell-based, hamster
Conditions: cAMP activation
Method in brief: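 HIT-T15 cells, 60,000/well, treated next day with compound at six concentrations ([…]) for 1 h at 37° C. Lysate cAMP quantified by HTRF competitive immunoassay (D2-cAMP, cryptate anti-cAMP); activity taken as change in FRET signal relative to DMSO.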

[1] = 1 h at 37° C., six concentrations, read-out: EC50

| EC50 [1] | EC50 (read-out: EC50 value) | Structure (SMILES) |
| --- | --- | --- |
| 8 nM | ≤ 50 nM | CCc1cnc(N2CCC(COc3ccc(C4=CCC(C(=O)N5CCC6(C=Cc7ccccc76)CC5)CC4)cc3)CC2)nc1 (centres unmarked) [Example 228, (4-(4-((1-(5-ethylpyrimidin-2-yl)piperidin-4-yl)methoxy)phenyl)cyclohex-3-enyl)(spiro[indene-1,4′-piperidin]-1′-yl)methanone] |
| 62 nM | – | CCc1cnc(N2CCC(COc3ccc(C4=CCC(C(=O)NC[C@H](C)O)CC4)cc3)CC2)nc1 (stereo partly drawn) [Example 136, 4-(4-((1-(5-ethylpyrimidin-2-yl)piperidin-4-yl)methoxy)phenyl)-N-((S)-2-hydroxypropyl)cyclohex-3-enecarboxamide] |
| 18 nM | – | CC(C)(C)OC(=O)N1CCC(COc2ccc(C3=CCC(C(=O)N4CCC5(C=Cc6ccccc65)CC4)CC3)cc2)CC1 (centres unmarked) [Example 264, tert-butyl 4-((4-(4-(spiro[indene-1,4′-piperidin]-1′-ylcarbonyl)cyclohex-1-enyl)phenoxy)methyl)piperidine-1-carboxylate] |
| 210 nM | – | CC(C)(C)OC(=O)N1CCC(COc2ccc(C3=CCC(C(=O)NC[C@H](O)CO)CC3)c(F)c2)CC1 (stereo partly drawn) [Example 132, tert-butyl 4-((4-(4-((S)-2,3-dihydroxypropylcarbamoyl)cyclohex-1-enyl)-3-fluorophenoxy)methyl)piperidine-1-carboxylate] |
| 10 nM | ≤ 50 nM | CCc1cnc(N2CCC(COc3ccc(C4=CCC(C(=O)N5CCC(F)(F)C5)CC4)cc3)CC2)nc1 (centres unmarked) [Example 258, (3,3-difluoropyrrolidin-1-yl)(4-(4-((1-(5-ethylpyrimidin-2-yl)piperidin-4-yl)methoxy)phenyl)cyclohex-3-enyl)methanone] |
| 38 nM | – | CCc1cnc(N2CCC(COc3ccc(C4=CCC(C(=O)N5CCN(CCO)CC5)CC4)cc3)CC2)nc1 (centres unmarked) [Example 172, (4-(4-((1-(5-ethylpyrimidin-2-yl)piperidin-4-yl)methoxy)phenyl)cyclohex-3-enyl)(4-(2-hydroxyethyl)piperazin-1-yl)methanone] |
| 37 nM | – | CCN1CCN(C(=O)C2CC=C(c3ccc(OCC4CCN(C(=O)OC(C)(C)C)CC4)cc3)CC2)CC1 (centres unmarked) [Example 203, tert-butyl 4-((4-(4-(4-ethylpiperazine-1-carbonyl)cyclohex-1-enyl)phenoxy)methyl)piperidine-1-carboxylate] |
| 7 nM | ≤ 50 nM | CCc1cnc(N2CCC(COc3ccc(C4=CCC(C(=O)N5CCC(CO)CC5)CC4)cc3)CC2)nc1 (centres unmarked) [Example 165, (4-(4-((1-(5-ethylpyrimidin-2-yl)piperidin-4-yl)methoxy)phenyl)cyclohex-3-enyl)(4-(hydroxymethyl)piperidin-1-yl)methanone] |
| 24 nM | – | CCc1cnc(N2CCC(COc3ccc(C4=CCC(C(=O)N5CC=CC5)CC4)cc3)CC2)nc1 (centres unmarked) [Example 235, (2,5-dihydro-1H-pyrrol-1-yl)(4-(4-((1-(5-ethylpyrimidin-2-yl)piperidin-4-yl)methoxy)phenyl)cyclohex-3-enyl)methanone] |
| 32 nM | ≤ 50 nM | CC(C)(C)OC(=O)N1CCC(COc2ccc(C3=CCC(C(=O)N4CCC(=O)C4)CC3)cc2)CC1 (centres unmarked) [Example 265, tert-butyl 4-((4-(4-(3-oxopyrrolidine-1-carbonyl)cyclohex-1-enyl)phenoxy)methyl)piperidine-1-carboxylate] |
| 29 nM | – | CC(C)c1noc(N2CCC(COc3ccc(C4=CCC(C(=O)N5CCC(=NO)CC5)CC4)cc3)CC2)n1 (centres unmarked) [Example 276, (4-(hydroxyimino)piperidin-1-yl)(4-(4-((1-(3-isopropyl-1,2,4-oxadiazol-5-yl)piperidin-4-yl)methoxy)phenyl)cyclohex-3-enyl)methanone] |

Continued, molecule first:

| Structure (SMILES) | EC50 [1] | EC50 (read-out: EC50 value) |
| --- | --- | --- |
| C[C@H](O)CNC(=O)C1CC=C(c2ccc(OCC3CCN(C(=O)OC(C)(C)C)CC3)c(F)c2)CC1 (stereo partly drawn) [Example 61, tert-butyl 4-((2-fluoro-4-(4-((S)-2-hydroxypropylcarbamoyl)cyclohex-1-enyl)phenoxy)methyl)piperidine-1-carboxylate] | 45 nM | ≤ 50 nM |
| CC(C)c1noc(N2CCC(COc3ccc(C4=CCC(C(=O)N[C@H](C)CO)CC4)nc3)CC2)n1 (stereo partly drawn) [Example 36, N-((R)-1-hydroxypropan-2-yl)-4-(5-((1-(3-isopropyl-1,2,4-oxadiazol-5-yl)piperidin-4-yl)methoxy)pyridin-2-yl)cyclohex-3-enecarboxamide] | 170 nM | – |
| CC(C)c1noc(N2CCC(COc3ccc(C4=CCC(C(=O)NC[C@H](O)CO)CC4)nc3)CC2)n1 (stereo partly drawn) [Example 41, N-((S)-2,3-dihydroxypropyl)-4-(5-((1-(3-isopropyl-1,2,4-oxadiazol-5-yl)piperidin-4-yl)methoxy)pyridin-2-yl)cyclohex-3-enecarboxamide] | 650 nM | – |
| CCc1cnc(N2CCC(COc3ccc(C4=CCC(C(=O)NC[C@@H](O)CO)CC4)cc3)CC2)nc1 (stereo partly drawn) [Example 12, N-((R)-2,3-dihydroxypropyl)-4-(4-((1-(5-ethylpyrimidin-2-yl)piperidin-4-yl)methoxy)phenyl)cyclohex-3-enecarboxamide] | 80 nM | – |
| CC(C)c1noc(N2CCC(COc3ccc(C4=CCC(C(=O)NCC(=O)N5CCOCC5)CC4)cc3F)CC2)n1 (centres unmarked) [Example 112, 4-(3-fluoro-4-((1-(3-isopropyl-1,2,4-oxadiazol-5-yl)piperidin-4-yl)methoxy)phenyl)-N-(2-morpholino-2-oxoethyl)cyclohex-3-enecarboxamide] | 70 nM | – |
| CC(C)(C)OC(=O)N1CCC(COc2ccc(C3=CCC(C(=O)N4CCSCC4)CC3)cc2F)CC1 (centres unmarked) [Example 71, tert-butyl 4-((2-fluoro-4-(4-(thiomorpholine-4-carbonyl)cyclohex-1-enyl)phenoxy)methyl)piperidine-1-carboxylate] | 5.4 nM | ≤ 50 nM |
| CC(C)(C)OC(=O)N1CCC(COc2ccc(C3=CCC(C(=O)N4CCC[C@H]4C#N)CC3)cc2F)CC1 (stereo partly drawn) [Example 114, tert-butyl 4-((4-(4-((S)-2-cyanopyrrolidine-1-carbonyl)cyclohex-1-enyl)-2-fluorophenoxy)methyl)piperidine-1-carboxylate] | 14 nM | ≤ 50 nM |
| CCc1cnc(N2CCC(COc3ccc(C4=CCC(C(=O)N5CC[C@@H](O)C5)CC4)cc3)CC2)nc1 (stereo partly drawn) [Example 16, (4-(4-((1-(5-ethylpyrimidin-2-yl)piperidin-4-yl)methoxy)phenyl)cyclohex-3-enyl)((R)-3-hydroxypyrrolidin-1-yl)methanone] | 13 nM | ≤ 50 nM |
| CC(C)(C)OC(=O)N1CCC(COc2ccc(C3=CCC(C(=O)NC[C@@H](O)CO)CC3)cn2)CC1 (stereo partly drawn) [Example 32, tert-butyl 4-((5-(4-((R)-2,3-dihydroxypropylcarbamoyl)cyclohex-1-enyl)pyridin-2-yloxy)methyl)piperidine-1-carboxylate] | 650 nM | – |
| C[C@H](CO)NC(=O)C1CC=C(c2ccc(OCC3CCN(C(=O)OC(C)(C)C)CC3)cc2F)CC1 (stereo partly drawn) [Example 129, tert-butyl 4-((3-fluoro-4-(4-((R)-1-hydroxypropan-2-ylcarbamoyl)cyclohex-1-enyl)phenoxy)methyl)piperidine-1-carboxylate] | 140 nM | – |
| CCc1cnc(N2CCC(COc3ccc(C4=CCC(C(=O)NC(CO)CO)CC4)cc3)CC2)nc1 (centres unmarked) [Example 15, N-(1,3-dihydroxypropan-2-yl)-4-(4-((1-(5-ethylpyrimidin-2-yl)piperidin-4-yl)methoxy)phenyl)cyclohex-3-enecarboxamide] | 370 nM | – |
| CC(C)c1noc(N2CCC(COc3ccc(C4=CCC(C(=O)N5CCOCC5)CC4)cc3F)CC2)n1 (centres unmarked) [Example 97, (4-(3-fluoro-4-((1-(3-isopropyl-1,2,4-oxadiazol-5-yl)piperidin-4-yl)methoxy)phenyl)cyclohex-3-enyl)(morpholino)methanone] | 8.4 nM | ≤ 50 nM |
| CC(C)c1noc(N2CCC(COc3ccc(C4=CCC(C(=O)N5CCC[C@H]5C(N)=O)CC4)cc3F)CC2)n1 (stereo partly drawn) [Example 108, (2S)-1-(4-(3-fluoro-4-((1-(3-isopropyl-1,2,4-oxadiazol-5-yl)piperidin-4-yl)methoxy)phenyl)cyclohex-3-enecarbonyl)pyrrolidine-2-carboxamide] | 55 nM | – |
| CC(C)(C)OC(=O)N1CCC(COc2ccc(C3=CCC(C(=O)N4CCOCC4)CC3)cc2)CC1 (centres unmarked) [Example 7, tert-butyl 4-((4-(4-(morpholine-4-carbonyl)cyclohex-1-enyl)phenoxy)methyl)piperidine-1-carboxylate] | 13 nM | ≤ 50 nM |
| C[C@H](O)CNC(=O)C1CC=C(c2ccc(OCC3CCN(C(=O)OC(C)(C)C)CC3)cc2F)CC1 (stereo partly drawn) [Example 125, tert-butyl 4-((3-fluoro-4-(4-((S)-2-hydroxypropylcarbamoyl)cyclohex-1-enyl)phenoxy)methyl)piperidine-1-carboxylate] | 70 nM | – |
| CC(C)c1noc(N2CCC(COc3ccc(C4=CCC(C(=O)NCC(F)F)CC4)cc3F)CC2)n1 (centres unmarked) [Example 93, N-(2,2-difluoroethyl)-4-(3-fluoro-4-((1-(3-isopropyl-1,2,4-oxadiazol-5-yl)piperidin-4-yl)methoxy)phenyl)cyclohex-3-enecarboxamide] | 50 nM | ≤ 50 nM |
